Entries after “also recorded” stand apart in the source; their conditions may differ.
Tests used:
[1] = test system: retinal ganglion cells (RGC); test: NMDA excitotoxicity mouse model: RGC count by retinal Flatmount; type: in vivo, C57BL/6)
Protocol: This study was for evaluating the effect of adeno-associated viral (AAV) vectors on retinal ganglion cell protection following damage caused via N-methyl-D-aspartate (NMDA) administration in the mouse. […] Groups 7 and 8 were added to test a higher concentration of MK-801. […] This study was conducted in wild type mice (Mus musculus, C57BL/6).
300 μL of the 5 mM NMDA stock was combined with 300 μL of sterile PBS and 1 μL as injected on Day 0 for a final concentration of 2.5 mM NMDA.
300 μL of the 5 mM NMDA stock as combined with 300 μL of sterile-filtered MK-801 and 1 μL was injected on Day 0 for a final concentration of 2.5 mM NMDA/100 μM MK-801.
300 μL of the 5 mM NMDA stock was combined with 300 μL of sterile PBS and 1 μL was injected on Day 0 for a final concentration of 2.5 mM NMDA.
On Day −28 or Day 0 based on the experimental design, mice were given buprenorphine 0.01-0.05 mg/kg subcutaneously (SQ). Animals were then tranquilized for the intravitreal injections with ketamine/xylazine or inhaled isoflurane and one drop of 0.5% proparacaine HCl was applied to both eyes. The conjunctiva was gently grasped with Dumont #4 forceps, and the injection was made using a 33 G needle and a Hamilton syringe. After dispensing the syringe contents, the syringe needle was slowly withdrawn. Following the injection procedure, 1 drop of Ofloxacin ophthalmic solution was applied topically to the ocular surface with eye lube.
Eyes were enucleated and immediately fixed in 4% paraformaldehyde in phosphate-buffered saline (PBS) and stored overnight at 4° C. The following day, the eyes were transferred to cold immunocytochemistry (ICC) buffer (PBS containing 0.5% BSA and 0.2% Tween 20) until processing. Using a dissecting microscope, the eye was carefully trimmed of extraneous tissue at the limbus and, using fine curved scissors, the anterior chamber was removed. Retinas in the eye cup were rinsed with cold ICC buffer. Eye cups were placed in cold ICC buffer containing 1/100 rat anti-CNP36 (Groups 3-6 only; resuspended at 0.5 mg/mL in PBS) for 3 hours at 4° C. Eye cups were then washed extensively and stained with 1/200 donkey anti-rat Cy3 and 1/1,000 DAPI for 2-3 hours at 4° C. Groups 1 and 2 were stained with 1/500 TUJ-1 and 1/1000 DAPI, while Groups 7 and 8 were incubated with 1/1,000 DAPI alone. Eye cups were washed extensively but gently with cold ICC buffer. Using fine curved scissors and an eyelash knife, the retina was detached from the optic nerve head and removed from the RPE/choroid. Radial cuts were then made toward the center and retinas were flat mounted, covered, and sealed. 2D fluorescent microscopy images were acquired using an Olympus Bx63 upright fluorescent microscope. […] Images at 20× were acquired in 4 quadrants and a central 248.1×325.7 μm region was analyzed for RGC counts using Olympus cellSens and ImageJ software.
Groups 1 and 2 were stained with DAPI and TUJ-1 and images were captured at 20× (FIG. 10A). RGCs were counted in four quadrants, and cells/mm2 were averaged across each group.
Groups 3-8 were stained for DAPI and four images were captured for each retina at 20× approximately 600 μm from the optic nerve head. RGCs were counted in a central 248.1×325.7 μm region and cells/mm2 were averaged over each group (FIG. 10C).
The statistical analyses were performed on the Group 3-8 RGC data (one-way ANOVA followed by multiple comparisons using the Dunnett statistical hypothesis comparison).

[2] = test system: retinal ganglion cells (RGC); test: NMDA excitotoxicity mouse model: RGC count by H&E histopathology; type: in vivo, C57BL/6); settings: for RGC #/HPF (400X): H&E, single animals, Group 2
Protocol: This study was for evaluating the effect of adeno-associated viral (AAV) vectors on retinal ganglion cell protection following damage caused via N-methyl-D-aspartate (NMDA) administration in the mouse. Injection volumes and treatment options can be found in Table 18. Groups 7 and 8 were added to test a higher concentration of MK-801. The tissues for bioanalysis were snap frozen whole instead of being homogenized. The methods of adding IBMX to whole blood were established and clarified. This study was conducted in wild type mice (Mus musculus, C57BL/6).
Following euthanasia, eyes of elected animals were processed for histological or immunological examination. The ODs of animal 519 (Group 5) and 629 (Group 6) were noted to have a very small lens, blood in the retina, and the eye was filled with a gel-like substance. […] For Groups 1 and 2, immediately following euthanasia, selected eyes were collected into 10% neutral buffered formalin. The eyes were placed in 70% ethanol the following day. The eyes were then processed to paraffin blocks for sectioning. Sagittal sections of each eye (5 μm thickness) were prepared for all animals. At least 3 slides containing a ribbon of approximately 5 sections were collected sequentially. The optic nerve was included in the sectioning. The slides were stained for hematoxylin and eosin (H&E) and examined using light microscopy. Retinal ganglion cells (RGC) were counted (Table 19 and FIG. 9C).

[3] = test system: TUJ-1+ and cone arrestin+ cells; test: NMDA excitotoxicity mouse model: immunohistochemistry (TUJ-1, cone arrestin); type: in vivo, C57BL/6); settings: Groups 1 and 2, Day 7, qualitative
Protocol: All eyes designated for immunohistochemistry (IHC) were enucleated, the approximate site of injection was marked, and eyes were fixed at 4° C. in 4% paraformaldehyde in separately labeled vials overnight. Eyes were then transferred into 0.1M phosphate buffer (PB), brought through a sequential sucrose gradient (10-30%, 1 hour each) followed by embedding in OCT medium and freezing on dry ice.
Negative controls were performed for the staining cocktail by utilizing only the secondary antibody. Five slides spanning the retina for each eye were stained. Two pictures per retinal cross-section—one at or near the injection site and one from a central region—were taken using an Olympus Bx63 upright fluorescent microscope and cellSens software. […] All groups had clear cone arrestin staining with some TUJ-1+ cells observed (FIG. 12B). No further staining or analysis was performed on cross-sections as the staining was not an informative endpoint.

[4] = test system: NIH3T3 cells (cGMP secreted); test: EC50 for CNP-Fc constructs, cGMP ELISA of NIH3T3 supernatant; type: cell-based; settings: NIH3T3, 30 minutes, 1.8 mM IBMX, cGMP secreted by the cells; FIG. 25B
Protocol: EC50 for CNP-Fc described herein were measured by ELISA. 2.5E+05 NIH3T3 cells/well were plated. […] After 30 minutes, supernatant was collected for cGMP determined via ELISA. FIG. 25A illustrates a standard curve of cGMP.

[5] = test system: intraocular pressure (IOP); test: Rat partial optic nerve transection (pONT) model: intraocular pressure (Tonolab tonometry); type: in vivo, rat (Dark Agouti)
Protocol: (§1) Using an experimental rat model of partial optic nerve transection (pONT), effects of Adeno-associated virus (AAV) CNP peptide (AAV-P) and protein Fc fusion (AAV-FP) on: retinal ganglion cell (RGC) apoptosis/stress in vivo was assessed using detection of apoptosing retinal cells (DARC) imaging; intraocular inflammation in vivo using Optical Coherence Tomography (OCT) imaging; intraocular pressure (IOP) in vivo using Tonolab tonometry; RGC survival histologically using immunohistochemistry on retinal whole mounts; and retinal microglial activity histologically using immunohistochemistry on retinal whole mounts.
(§2) In total, seventy-two male Dark Agouti (DA) rats aged 8-10 weeks were used in this study. The seventy-two animals were randomly divided into 3 categories.
(§3) Intravitreal injections (IVT, 4 μL) were given under general anesthesia (GA), according to the categories, and administered to the left eye (pONT eye) only once using a 34-gauge Hamilton needle at day 0 after BL imaging. pONT was performed at week 3 in Categories 1 and 2. In Category 3, pONT was performed soon after baseline imaging.
Partial optic nerve transection (pONT) surgery was performed under GA at week 3 in categories 1 and 2. […]
IOP. […] Ten IOP readings were collected from each eye of each animal at each time point.
IOP measurements were performed three times a week at weeks 1, 2, and 4. DARC spots on in vivo images were automatically counted by an algorithm developed and validated in the Cordeiro lab. […] RBPMS^+ RGCs in retinal whole mounts were automatically counted and analyzed by a recently developed and validated algorithm in the Cordeiro lab. […] The morphology of microglia in retinal whole mounts was automatically analyzed by a recently developed and validated machine learning approach in the Cordeiro lab.
IOP analysis in the both Fc4-CNP36 (FP) and AAV treatment. […] The IOP data was analyzed by subtracting OD (the right eye) from OS (the left eye) in each animal at each time point. […] FIG. 16A illustrates animal IOP monitored during the course of the study. […]

[6] = test system: apoptosing retinal cells (RGC apoptosis); test: Rat pONT model: DARC imaging of RGC apoptosis; type: in vivo, rat (Dark Agouti)
Protocol: as §1, §2, §3
Partial optic nerve transection (pONT) surgery was performed under GA at week 3 in categories 1 and 2. In category 3, pONT surgery was performed on day 0 after BL imaging. […]
DARC/OCT. under GA, DARC/OCT imaging was conducted at baseline (BL), weeks 1, 2, and 4 in categories 1 and 2. pONT was performed at week 3. […] Briefly, fluorescently labelled annexin 776 (6 mg/mL, 40 μL) was […] administrated 2 hours before DARC imaging and then assessed with a confocal scanning laser ophthalmoscope (cSLO). […]
IOP measurements were performed three times a week at weeks 1, 2, and 4. DARC spots on in vivo images were automatically counted by an algorithm developed and validated in the Cordeiro lab. […] RBPMS^+ RGCs in retinal whole mounts were automatically counted and analyzed by a recently developed and validated algorithm in the Cordeiro lab. […] The morphology of microglia in retinal whole mounts was automatically analyzed by a recently developed and validated machine learning approach in the Cordeiro lab. […]

[7] = test system: retinal ganglion cells (RGC); test: Rat pONT model: RGC survival, RBPMS+ RGCs in retinal whole mounts; type: in vivo, rat (Dark Agouti)
[8] = Rat pONT model: ELISA of Fc4-CNP36 / CNP36 in ocular homogenate and serum; settings: after IVT of FP protein, terminal samples; FIG. 18
Protocol: Make a mixture of RIPA and the protease inhibitor was prepared by adding one tablet of protease inhibitor in 10 mL of RIPA buffer. Ocular tissue was measured for the amount of buffer needed. For every 1 mg of tissue, 10 μL of buffer was added. The tube containing the tissue was sonicated for 20 seconds on ice followed by 20 seconds of rest on ice. The sonication and chilling on ice was repeated two more times making 3 cycles in total.
After complete homogenization, the tubes were placed on an orbital shaker in cold room for two hours. After two hours, the tubes were centrifuged for five minutes at 13,000 rpm. The supernatants were collected and stored store at −80° C.
Animals were culled at week 4 in categories 1 and 2, and at week 1 in category 3. Before culling, a blood sample (at least 2 mL) was collected by cardiac puncture under the terminal procedure, centrifuged to collect serum, and stored at −80° C.
The remaining three blocks (blocks 4-6) of animals from each category (36 rats in total) were used for protein analysis. After culling, both eyes from each animal were enucleated and snap-frozen with liquid nitrogen, cryogenically homogenized with mortar and pestle and stored at −80° C. until protein analysis.
A serial dilution of CNP-Fc can be used in the assay. The detection range of CNP-Fc concentration in this assay can be from 0.78 to 50 ng/mL. […]

Molecule | RGC protection by positive control ([1]; 100 μM MK-801) | RGC count, retinal Flatmount (Groups 1 and 2) ([1]; Group 2 ODs, NMDA + MK-801 co-injection IVT Day 0, DAPI and TUJ-1) | RGC count, retinal Flatmount (Groups 3-8) ([1]; Group 8 ODs, NMDA + 100 μM MK-801 co-injection IVT Day 0, DAPI) | P, RGC count NMDA+MK-801-treated (Group 8) versus NMDA-treated (Group 7 OD) eyes ([1]; one-way ANOVA, Dunnett, MK-801 100 μM) | mean RGC count, Group 2 versus Group 1 ([2]; H&E histopathology, ODs and OSs) | RGC #/HPF (400X) ([2]; L eye (OS, control eye, no NMDA)) | RGC #/HPF (400X) ([2]; R eye (OD, experimental eye: NMDA + MK-801)) | number of TUJ-1+ and cone arrestin+ cells between groups [3] | EC50 values (rank order) [4] | effect on IOP ([5]; IVT 2, 20 and 80 μg/eye of affinity purified FP) | dose at which IOP reduction reached maximal ([5]; IVT, range 2-80 μg/eye) [μg/eye] | p, reduction in the IOP ([5]; all FP concentrations (2, 20, 80 μg/eye IVT), Day 1 compared to baseline (Day 0) or Day 7 after pONT) | p, DARC count FP (High) versus AAV-Negative ([6]; 80 μg/eye IVT) | DARC count, FP conditions ([6]; FP 2, 20, 80 μg/eye IVT, baseline subtracted, listed as FP) | DARC count at highest FP dose ([6]; FP (H) = 80 μg/eye IVT, listed as FP) | RGC counts versus FP dose ([7]; FP 2, 20, 80 μg/eye IVT, FIG. 17B) | RGC counts in eyes after treatment ([7]; summary) | FP4-CNP36 levels in treated eyes (OS) [8]
C[C@]12N[C@H](Cc3ccccc31)c1ccccc12 [MK-801] | fully rescued the NMDA RGC loss phenotype | 9,000±500 cells/mm2 | 12,000±300 cells/mm2 | < 0.0001 | no differences in the mean RGC count | RGC #/HPF (400X) = 37; also recorded: RGC #/HPF (400X) = 35; also recorded: RGC #/HPF (400X) = 55; also recorded: RGC #/HPF (400X) = 38 | RGC #/HPF (400X) = 41; also recorded: RGC #/HPF (400X) = 31 | did not appear to be a difference | – | – | – | – | – | – | – | – | – | –
AMI263: purified fusion protein Fc4-(G4S)4-CNP36 (IgG4 Fc), SEQ ID NO: 135 | – | – | – | – | – | – | – | – | CNP-22 ≡Fc4-CNP36>Aflibercept-Fc4-CNP36>Fc1-CNP36>>Fc4-CNP22 | significant effect on IOP reduction | 2 | < 0.01 | 0.0078 | lowest DARC count; also recorded: dose-dependent effect | complete inhibition of DARC formation; also recorded: significant reduction compared to Sham control | increased with dose increase | RGC counts increased | correlated to the dose amount
